The source of these data is PubChem BioAssay AID1745844 (Carcinogenic Potency Database (CPDB), 2022).

A word on the TD50: it is the dose at which the toxic effect under study appears in half of the subjects.

SMILES strings stand for the structures. Values joined by “and” are separate entries in the source; they are usually repeats but may differ in a detail not shown here. Equal values may be shown once. Active and inactive are the calls of the source. The rule behind the calls is not given here.

This data set relates to rodent lifetime carcinogenesis bioassay, tumor incidence TD50. Kind of data set: chronic cancer bioassays in animals – CPDB, compiled studies (AID 1745844).

With `Nc1nnc(-c2ccc([N+](=O)[O-])o2)s1`, the TD50 runs as follows: (rat, strain Sprague-Dawley, females, in feed, site: any site (literature study), lesion: several types, types named in the paper, dosed 45 weeks, study length 66 weeks) 0.662 mg/kg/day; (rat, strain Sprague-Dawley, females, in feed, site: forestomach, lesion: squamous-cell papilloma, dosed 45 weeks, study length 66 weeks) 23.7 mg/kg/day; (rat, strain Sprague-Dawley, females, in feed, site: kidney/pelvis, lesion: transitional-cell carcinoma, dosed 45 weeks, study length 66 weeks) 73.4 mg/kg/day; (rat, strain Sprague-Dawley, females, in feed, site: lung, lesion: alveolar-cell carcinoma, dosed 45 weeks, study length 66 weeks) 73.4 mg/kg/day; (rat, strain Sprague-Dawley, females, in feed, site: mammary gland, lesion: adenocarcinoma, dosed 45 weeks, study length 66 weeks) 1.2 mg/kg/day; (rat, strain Sprague-Dawley, females, in feed, site: mammary gland, lesion: several types, types named in the paper, dosed 45 weeks, study length 66 weeks) 0.662 mg/kg/day.
With `CC(O)COC(C)(C)C` (stereo not drawn), the TD50 was 8120 mg/kg/day (mouse, strain B6C3F1, females, inhaled, site: any site (literature study), lesion: several types, types named in the paper, dosed 104 weeks, study length 104 weeks); 1780 mg/kg/day (mouse, strain B6C3F1, females, inhaled, site: liver, lesion: hepatocellular adenoma + hepatoblastoma + hepatocellular carcinoma, dosed 104 weeks, study length 104 weeks); 1780 mg/kg/day (mouse, strain B6C3F1, females, inhaled, site: liver, lesion: hepatocellular adenoma + hepatocellular carcinoma, dosed 104 weeks, study length 104 weeks); 1780 mg/kg/day (mouse, strain B6C3F1, females, inhaled, site: liver, lesion: hepatocellular adenoma, dosed 104 weeks, study length 104 weeks); 7930 mg/kg/day (mouse, strain B6C3F1, males, inhaled, site: any site (literature study), lesion: several types, types named in the paper, dosed 104 weeks, study length 104 weeks); 9320 mg/kg/day (mouse, strain B6C3F1, males, inhaled, site: liver, lesion: hepatoblastoma, dosed 104 weeks, study length 104 weeks). Also, the TD50 is 1980 mg/kg/day (mouse, strain B6C3F1, males, inhaled, site: liver, lesion: hepatocellular adenoma + hepatoblastoma + hepatocellular carcinoma, dosed 104 weeks, study length 104 weeks); 1980 mg/kg/day (mouse, strain B6C3F1, males, inhaled, site: liver, lesion: hepatocellular adenoma + hepatocellular carcinoma, dosed 104 weeks, study length 104 weeks); 1970 mg/kg/day (mouse, strain B6C3F1, males, inhaled, site: liver, lesion: hepatocellular adenoma, dosed 104 weeks, study length 104 weeks); 10500 mg/kg/day (rat, strain Fischer 344, females, inhaled, site: liver, lesion: hepatocellular adenoma + hepatoblastoma + hepatocellular carcinoma, dosed 104 weeks, study length 104 weeks); 683 mg/kg/day (rat, strain Fischer 344, males, inhaled, site: any site (literature study), lesion: several types, types named in the paper, dosed 104 weeks, study length 104 weeks); 2280 mg/kg/day and 2650 mg/kg/day (rat, strain Fischer 344, males, inhaled, site: kidney, lesion: tubule adenoma + tubule carcinoma, dosed 104 weeks, study length 104 weeks). Also, the TD50 is 4480 mg/kg/day and 3800 mg/kg/day (rat, strain Fischer 344, males, inhaled, site: kidney, lesion: tubule adenoma, dosed 104 weeks, study length 104 weeks); 1450 mg/kg/day (rat, strain Fischer 344, males, inhaled, site: liver, lesion: hepatocellular adenoma + hepatoblastoma + hepatocellular carcinoma, dosed 104 weeks, study length 104 weeks); 1450 mg/kg/day (rat, strain Fischer 344, males, inhaled, site: liver, lesion: hepatocellular adenoma, dosed 104 weeks, study length 104 weeks); 1510 mg/kg/day (rat, strain Fischer 344, males, inhaled, site: skin, lesion: basal-cell adenoma + basal-cell carcinoma, dosed 104 weeks, study length 104 weeks); 2070 mg/kg/day (rat, strain Fischer 344, males, inhaled, site: skin, lesion: basal-cell adenoma, dosed 104 weeks, study length 104 weeks). For the same compound, the carcinogen call (rat, strain Fischer 344, females, inhaled, site: any site (literature study), lesion: several types, types named in the paper, dosed 104 weeks, study length 104 weeks) was “negative (inactive)”.
As for `CCCCC1(COC(=O)CCC(=O)O)C(=O)N(c2ccccc2)N(c2ccccc2)C1=O`, the carcinogen call runs as follows: (rat, strain F344/DuCrj, females, in feed, site: liver, lesion: one or several types, types not named, dosed 104 weeks, study length 104 weeks) “negative (inactive)”; (rat, strain F344/DuCrj, males, in feed, site: liver, lesion: hepatocellular adenoma, dosed 104 weeks, study length 104 weeks) “negative (inactive)”; (rat, strain F344/DuCrj, males, in feed, site: liver, lesion: hepatocellular carcinoma, dosed 104 weeks, study length 104 weeks) “negative (inactive)”. Moreover, the TD50 (rat, strain F344/DuCrj, males, in feed, site: adrenal gland, lesion: pheochromocytoma, dosed 104 weeks, study length 104 weeks) was 471 mg/kg/day (inactive).
As to `CN(C#N)N=O`, the TD50 is, setting by setting: (rat, strain Sprague-Dawley, females, in drinking water, site: forestomach, lesion: carcinoma, dosed 60 weeks, study length 95 weeks) 1.17 mg/kg/day; (rat, strain Sprague-Dawley, females, in drinking water, site: forestomach, lesion: several types, types named in the paper, dosed 60 weeks, study length 95 weeks) 0.48 mg/kg/day.
For the compound `Cc1c(COC(=O)[C@@H]2[C@H](/C=C(\Cl)C(F)(F)F)C2(C)C)cccc1-c1ccccc1`, the TD50 (mouse, strain Swiss Webster, males, in feed, site: urinary bladder, lesion: mesenchymal neoplasm, dosed 86 weeks, study length 86 weeks) stood at 286 mg/kg/day.
As to `[O-]/[N+](=N\O)c1ccccc1`, the TD50 is 1270 mg/kg/day (mouse, strain B6C3F1, females, in feed, site: Harderian gland, lesion: adenoma, NOS, dosed 78 weeks, study length 95 weeks); 3930 mg/kg/day (mouse, strain B6C3F1, females, in feed, site: Zymbal's gland, lesion: sebaceous adenocarcinoma + squamous-cell carcinoma, dosed 78 weeks, study length 95 weeks); 253 mg/kg/day (mouse, strain B6C3F1, females, in feed, site: all sites + Harderian gland + liver + Zymbal's gland, lesion: hemangioma + hemangiosarcoma + adenoma, NOS + hepatocellular adenoma + hepatocellular carcinoma + sebaceous adenocarcinoma + squamou, dosed 78 weeks, study length 95 weeks); 419 mg/kg/day (mouse, strain B6C3F1, females, in feed, site: all sites, lesion: hemangioma + hemangiosarcoma, dosed 78 weeks, study length 95 weeks); 1330 mg/kg/day (mouse, strain B6C3F1, females, in feed, site: all sites, lesion: hemangiosarcoma, dosed 78 weeks, study length 95 weeks); 211 mg/kg/day (mouse, strain B6C3F1, females, in feed, site: any site (literature study), lesion: several types, types named in the paper, dosed 78 weeks, study length 95 weeks). In addition, the TD50 was 413 mg/kg/day (mouse, strain B6C3F1, females, in feed, site: liver, lesion: hepatocellular adenoma + hepatocellular carcinoma + neoplastic nodule, dosed 78 weeks, study length 95 weeks); 413 mg/kg/day (mouse, strain B6C3F1, females, in feed, site: liver, lesion: hepatocellular adenoma + hepatocellular carcinoma, dosed 78 weeks, study length 95 weeks); 564 mg/kg/day (mouse, strain B6C3F1, females, in feed, site: liver, lesion: hepatocellular carcinoma, dosed 78 weeks, study length 95 weeks); 798 mg/kg/day (mouse, strain B6C3F1, females, in feed, site: lung, lesion: alveolar/bronchiolar adenoma + alveolar/bronchiolar carcinoma, dosed 78 weeks, study length 95 weeks); 1040 mg/kg/day (mouse, strain B6C3F1, males, in feed, site: Harderian gland, lesion: adenoma, NOS, dosed 78 weeks, study length 95 weeks); 1000 mg/kg/day (mouse, strain B6C3F1, males, in feed, site: all sites, lesion: hemangiosarcoma, dosed 78 weeks, study length 95 weeks). In addition, the TD50 was 252 mg/kg/day (mouse, strain B6C3F1, males, in feed, site: any site (literature study), lesion: several types, types named in the paper, dosed 78 weeks, study length 95 weeks); 5450 mg/kg/day (mouse, strain B6C3F1, males, in feed, site: liver, lesion: hepatocellular adenoma + hepatocellular carcinoma + neoplastic nodule, dosed 78 weeks, study length 95 weeks); 2390 mg/kg/day (mouse, strain B6C3F1, males, in feed, site: lung, lesion: alveolar/bronchiolar adenoma + alveolar/bronchiolar carcinoma, dosed 78 weeks, study length 95 weeks); 171 mg/kg/day (rat, strain Fischer 344, females, in feed, site: Zymbal's gland, lesion: ceruminous carcinoma + squamous-cell carcinoma, dosed 78 weeks, study length 106 weeks); 14.1 mg/kg/day (rat, strain Fischer 344, females, in feed, site: all sites + liver + stomach + Zymbal's gland, lesion: hemangiosarcoma + hepatocellular carcinoma + neoplastic nodule + squamous-cell carcinoma + squamous-cell papilloma + ceruminous ca, dosed 78 weeks, study length 106 weeks); 17.4 mg/kg/day (rat, strain Fischer 344, females, in feed, site: all sites, lesion: hemangiosarcoma, dosed 78 weeks, study length 106 weeks). Also, the TD50 was 11.2 mg/kg/day (rat, strain Fischer 344, females, in feed, site: any site (literature study), lesion: several types, types named in the paper, dosed 78 weeks, study length 106 weeks); 17.7 mg/kg/day (rat, strain Fischer 344, females, in feed, site: liver, lesion: hepatocellular adenoma + hepatocellular carcinoma + neoplastic nodule, dosed 78 weeks, study length 106 weeks); 17.7 mg/kg/day (rat, strain Fischer 344, females, in feed, site: liver, lesion: hepatocellular carcinoma + neoplastic nodule, dosed 78 weeks, study length 106 weeks); 20.1 mg/kg/day (rat, strain Fischer 344, females, in feed, site: liver, lesion: hepatocellular carcinoma, dosed 78 weeks, study length 106 weeks); 27.8 mg/kg/day (rat, strain Fischer 344, females, in feed, site: stomach, lesion: squamous-cell carcinoma + squamous-cell papilloma, dosed 78 weeks, study length 106 weeks); 31.3 mg/kg/day (rat, strain Fischer 344, females, in feed, site: stomach, lesion: squamous-cell carcinoma, dosed 78 weeks, study length 106 weeks). Further, the TD50 was 5.33 mg/kg/day (rat, strain Fischer 344, males, in feed, site: all sites + liver + stomach, lesion: hemangiosarcoma + hepatocellular carcinoma + neoplastic nodule + squamous-cell carcinoma + squamous-cell papilloma, dosed 78 weeks, study length 105 weeks); 5.49 mg/kg/day (rat, strain Fischer 344, males, in feed, site: all sites, lesion: hemangiosarcoma, dosed 78 weeks, study length 105 weeks); 8.85 mg/kg/day (rat, strain Fischer 344, males, in feed, site: any site (literature study), lesion: several types, types named in the paper, dosed 78 weeks, study length 105 weeks); 139 mg/kg/day (rat, strain Fischer 344, males, in feed, site: body cavities, lesion: mesothelioma, NOS + mesothelioma, dosed 78 weeks, study length 105 weeks); 9.28 mg/kg/day (rat, strain Fischer 344, males, in feed, site: liver, lesion: hepatocellular adenoma + hepatocellular carcinoma + neoplastic nodule, dosed 78 weeks, study length 105 weeks); 9.28 mg/kg/day (rat, strain Fischer 344, males, in feed, site: liver, lesion: hepatocellular carcinoma + neoplastic nodule, dosed 78 weeks, study length 105 weeks). The TD50 (rat, strain Fischer 344, males, in feed, site: liver, lesion: hepatocellular carcinoma, dosed 78 weeks, study length 105 weeks) is 30.7 mg/kg/day; the TD50 (rat, strain Fischer 344, males, in feed, site: stomach, lesion: squamous-cell carcinoma + squamous-cell papilloma, dosed 78 weeks, study length 105 weeks) is 6.28 mg/kg/day; the TD50 (rat, strain Fischer 344, males, in feed, site: stomach, lesion: squamous-cell carcinoma, dosed 78 weeks, study length 105 weeks) is 6.94 mg/kg/day; the TD50 (rat, strain Fischer 344, males, in feed, site: subcutaneous tissue, lesion: fibroma, dosed 78 weeks, study length 105 weeks) is 10.5 mg/kg/day.
As to `O=NN1CCCN(N=O)C1`, where the note is “rat, strain Sprague-Dawley, males, i.p., site: paranasal sinus, lesion: squamous-cell carcinoma, dosed 104 weeks, study length 104 weeks”, the TD50 is 0.166 mg/kg/day.
On to `Cn1nc(CO)nc1NCCCOc1cccc(CN2CCCCC2)c1`, for which the TD50 (rat, strain Charles River CD (Sprague-Dawley), females, in feed, site: stomach, glandular, fundic region, lesion: carcinoid tumor, malignant, dosed 115 weeks, study length 115 weeks) is 272 mg/kg/day and the TD50 (rat, strain Charles River CD (Sprague-Dawley), males, in feed, site: stomach, glandular, fundic region, lesion: carcinoid tumor, malignant, dosed 115 weeks, study length 115 weeks) was 2010 mg/kg/day.
In the case of `C=CC(OCC)OCC`, the TD50 runs as follows: (rat, strain Fischer 344, females, in drinking water, site: liver, lesion: hyperplastic nodule, dosed 102 weeks, study length 130 weeks) 131 mg/kg/day; (rat, strain Fischer 344, females, in drinking water, site: liver, lesion: several types, types named in the paper, dosed 102 weeks, study length 130 weeks) 123 mg/kg/day; (rat, strain Fischer 344, males, in drinking water, site: liver, lesion: hepatocellular carcinoma, dosed 102 weeks, study length 130 weeks) 262 mg/kg/day; (rat, strain Fischer 344, males, in drinking water, site: liver, lesion: hyperplastic nodule, dosed 102 weeks, study length 130 weeks) 266 mg/kg/day; (rat, strain Fischer 344, males, in drinking water, site: liver, lesion: several types, types named in the paper, dosed 102 weeks, study length 130 weeks) 124 mg/kg/day.
